One assay has as its target T1, mutant B-RAF (Homo sapiens, UniProt P15056, V600E).
T1 construct: purchased Upstate (Charlottesville, Va.)
Put plainly: RAF biochemical assay (MEK-1 phosphorylation, anti-phospho MEK1/2 detection). The note with it: read-out: Mutant B-RAF IC50. In outline:
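Detection is by ELISA: after a 30 min room-temperature reaction, plate-captured GST-MEK-1 is probed with anti-phospho MEK1/2, then an AP-tagged secondary antibody with fluorescent Attophos read-out.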

For assay [1], the system named is human mammary epithelial cells (HMEC, normal). Kind of assay: MTS cell growth assay, HMEC. The assay is classed as cell-based. The settings on record: 72 hours. From the text:
(§1) Compounds of the present invention have been tested for activity against a variety of cancer cell lines. The ability of compounds to inhibit cell growth in this assay is correlated with the reduction of dehydrogenase enzyme activity found in metabolically active cells.
(§2) Materials: A375 (a human melanoma cell line that harbors the B-RAF mutation V600E), Colo-205 (a human colon cancer cell line that harbors the B-RAF mutation V600E), DLD1 (a human colon cancer cell line that harbors the K-ras mutation G13D), SK-MEL-2 (a human melanoma cell line that harbors the N-ras mutation Q61R), SK-MEL-28 (a human melanoma cell line that harbors the B-RAF mutation V600E), and SW480 (a human colon cancer cell line that harbors the K-ras mutation G12V) cells from ATCC were maintained at 37° C., 5% CO2 in DMEM media supplemented with 10% fetal bovine serum, penicillin/streptomycin and fungizone (Invitrogen). NCM460 (Incell), a normal colon epithelial cell line, and human mammary epithelial cells (Cambrex) were maintained at 37° C., 5% CO2 in DMEM and HEBM media (Cambrex), respectively.
(§3) Methods: Test compounds were dissolved and diluted to 300× in DMSO then diluted 1:40 in DMEM. Cells were seeded into 96-well tissue culture plates at 2-5×10^3 per well and cultured at 37° C. for 24 h. Cells were incubated with test compounds for 72 hours followed by incubation with tetrazolium compound (3-(4,5-dimethylthiazol-2-yl)-5-(3-carboxymethoxyphenyl)-2-(4-sulfophenyl)-2H-tetrazolium, inner salt; MTS) and the electron coupling reagent, phenazine methosulfate (PMS) for 4 hr. […] The measurement of the absorbance of the formazan was assessed using an ENVISION™ (Perkin Elmer) microplate reader at 492 nm. The calculated IC50 value is the concentration of the test compound that causes a 50% decrease in the absorbance.

Assay [2] deals with NCM460 normal colon epithelial cell line. Put plainly: MTS cell growth assay, NCM460. It is filed as cell-based. The settings on record: Homo sapiens, NCM460 normal cells, 72 hours.
Description: as §1, §2, §3

Assay [3] concerns A375 human melanoma cell line (B-RAF V600E). Kind of assay: MTS cell growth assay, A375. It is filed as cell-based. The settings on record: A-375, A375 cells, 72 hours.
Description: as §1, §2, §3
Background: Formazan colour is commonly taken as a measure of viable cells.

Assay [4] has as its system Colo-205 human colon cancer cell line (B-RAF V600E). Put plainly: MTS cell growth assay, Colo-205. It is filed as cell-based. The settings on record: Colo205 cells, 72 hours.
Description: as §1, §2, §3

Assay [5] has as its system SK-MEL-28 human melanoma cell line (B-RAF V600E). Kind of assay: MTS cell growth assay, SK-MEL-28. The assay is classed as cell-based. The settings on record: SKMEL28 cells, 72 hours.
Description: as §1, §2, §3

For assay [6], the system named is SK-MEL-2 human melanoma cell line (N-ras Q61R). Put plainly: MTS cell growth assay, SK-MEL-2. The note with it: SKMEL2 cells, 72 hours, read-out: IC50 SKMEL2 NRAS (Q61R). It is filed as cell-based.
Description: as §1, §2, §3

The test system of assay [7] is DLD1 human colon cancer cell line (K-ras G13D). Put plainly: MTS cell growth assay, DLD1. It is filed as cell-based. The note with it: DLD-1, DLD1 cells, 72 hours, read-out: IC50 DLD1 KRAS (G13D).
Description: as §1, §2, §3

For assay [8], the system named is SW480 human colon cancer cell line (K-ras G12V). Kind of assay: MTS cell growth assay, SW480. The settings on record: SW480 cells, 72 hours, read-out: IC50 SW480 KRAS (G12V). It is filed as cell-based.
Description: as §1, §2, §3

SMILES strings stand for the structures.

In general, IC50 refers to the midpoint of a concentration-inhibition curve.

T1 sequence (P15056 whole entry V600E): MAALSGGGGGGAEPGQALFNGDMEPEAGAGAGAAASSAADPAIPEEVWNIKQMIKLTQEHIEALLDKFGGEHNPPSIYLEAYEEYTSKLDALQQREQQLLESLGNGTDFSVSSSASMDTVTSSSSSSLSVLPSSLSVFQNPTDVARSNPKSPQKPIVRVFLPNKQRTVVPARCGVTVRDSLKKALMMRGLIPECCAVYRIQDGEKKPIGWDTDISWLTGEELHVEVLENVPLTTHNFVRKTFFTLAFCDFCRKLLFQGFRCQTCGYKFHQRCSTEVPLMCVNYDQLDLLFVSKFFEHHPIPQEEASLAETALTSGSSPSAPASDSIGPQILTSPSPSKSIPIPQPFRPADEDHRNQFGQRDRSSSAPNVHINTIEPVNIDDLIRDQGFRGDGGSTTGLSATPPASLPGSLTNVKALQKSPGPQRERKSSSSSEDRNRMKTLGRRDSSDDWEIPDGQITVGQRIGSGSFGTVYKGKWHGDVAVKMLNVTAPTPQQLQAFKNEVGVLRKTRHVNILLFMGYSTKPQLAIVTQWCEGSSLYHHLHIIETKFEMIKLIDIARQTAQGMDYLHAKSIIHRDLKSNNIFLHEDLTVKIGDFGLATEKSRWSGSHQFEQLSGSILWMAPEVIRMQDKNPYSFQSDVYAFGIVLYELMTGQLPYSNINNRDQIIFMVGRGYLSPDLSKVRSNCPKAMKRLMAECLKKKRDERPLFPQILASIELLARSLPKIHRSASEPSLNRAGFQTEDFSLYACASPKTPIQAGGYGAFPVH

For the molecule `O=S(=O)(c1ccc(Cl)cc1)N1CCC(Nc2nccc(-c3c(-c4cccc(O)c4)nc4sccn34)n2)CC1` [Example 267, 3-{5-[2-({1-[(4-chlorophenyl)sulfonyl]piperidin-4-yl}amino)pyrimidin-4-yl]imidazo[2,1-b][1,3]thiazol-6-yl}phenol], the IC50 at mutant B-RAF was found to be 31 nM; in [1], 1070 nM; in [2], 2050 nM; in [3], 270 nM; in assay [4], 190 nM; in [5], 380 nM. In addition, the IC50 in [6] came to 870 nM; in assay [7], 1760 nM; in assay [8], 2130 nM.

For `COc1cccc(-c2nc3sccn3c2-c2ccnc(N[C@@H]3CCCN(C(=O)c4ccncc4)C3)n2)c1` [Example 112, N-[(3R)-1-isonicotinoylpiper-idin-3-yl]-4-[6-(3-methoxyphenyl)imidazo[2,1-b][1,3]thiazol-5-yl]pyrimidin-2-amine], the IC50 at mutant B-RAF is above 5000 nM; in [1] it was 2240 nM; in [2] it was 4710 nM; in assay [3], 270 nM; in assay [4] it was 330 nM; in assay [5] it was 860 nM. Moreover, the IC50 in assay [6] worked out at 910 nM; in [7] it was 3330 nM; in assay [8], 2740 nM.

Regarding `O=C(c1ccc(F)cc1)N1CCC(Nc2nccc(-c3c(-c4ccc(F)cc4)nc4sccn34)n2)CC1` [Example 289, N-[1-(4-fluorobenzoyl)piperidin-4-yl]-4-[6-(4-fluorophenyl)imidazo[2,1-b][1,3]thiazol-5-yl]pyrimidin-2-amine], the IC50 at mutant B-RAF is above 10000 nM; in assay [1], 1240 nM; in [2] it was 4170 nM; in assay [3], 150 nM; in [4] it was 180 nM; in assay [5], 670 nM. In addition, the IC50 came to 990 nM in [6], 3080 nM in assay [7] and 2970 nM in assay [8].

For the molecule `CCNC(=O)N1CCC(Nc2nccc(-c3c(-c4cccc(O)c4)nc4sccn34)n2)CC1` [Example 268, N-ethyl-4-({4-[6-(3-hydroxyphenyl)imidazo[2,1-b][1,3]thiazol-5-yl]pyrimidin-2-yl}amino)piperidine-1-carboxamide], the IC50 came to 9 nM on mutant B-RAF; 720 nM in assay [1]; 2540 nM in assay [2]; 370 nM in assay [3]; 360 nM in assay [4]; 800 nM in assay [5]. Moreover, the values for the IC50 in assay [6], in [7] and in assay [8] were 1330 nM, 4030 nM and 4400 nM, respectively.

As for `COc1ccccc1-c1nc2sccn2c1-c1ccnc(N[C@@H]2CCCN(S(=O)(=O)c3ccc(Cl)cc3)C2)n1` [Example 105, N-{(3R)-1-[(4-chlorophenyl)sulfonyl]piperidin-3-yl}-4-[6-(2-methoxyphenyl)imidazo[2,1-b][1,3]thiazol-5-yl]pyrimidin-2-amine], the IC50 on mutant B-RAF came to 250 nM; in assay [1], 2720 nM; in [2], 6680 nM; in assay [3] it was 310 nM; in assay [4], 380 nM; in assay [5], 480 nM. Also, the IC50 in [6] was 1100 nM; in assay [7], 4730 nM; in assay [8], 1280 nM.

These data come from patent US7501430B2 (ArQule, Inc., priority 2006, dated 2009).
